Experimental data published in ChEMBL document CHEMBL1201862, “PubChem BioAssay data set” (2004).
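In this assay, cells in 96-well plates receive the compound at five concentrations for 48 hours. Endpoints are linearly interpolated between the surrounding concentrations. GI50 marks 50% less growth.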 Active and inactive are the calls of the source. Rule as the data show it: active = GI50 up to about 1.1 µM and inactive = higher.

Tests used:
Experiment in all cases: inhibition of tumour cell growth, NCI panel, 48 h
SF-295 = tested on: SF-295
SNB-19 = tested on: SNB-19
SN12C = tested on: SN12C
A549 = tested on: A549
HCC 2998 = tested on: HCC 2998
SNB-75 = tested on: SNB-75
CCRF-CEM = tested on: CCRF-CEM
TK-10 = tested on: TK-10
OVCAR-8 = tested on: OVCAR-8
NCI-H460 = tested on: NCI-H460
ACHN = tested on: ACHN
A498 = tested on: A498
NCI/ADR-RES = tested on: NCI/ADR-RES
UACC-62 = tested on: UACC-62
OVCAR-3 = tested on: OVCAR-3
SK-MEL-2 = tested on: SK-MEL-2
HCT-116 = tested on: HCT-116
Hs-578T = tested on: Hs-578T
MOLT-4 = tested on: MOLT-4
KM-20L2 = tested on: KM-20L2

Measured: GI50

O=C(/C=C/C(Cl)(Cl)Cl)Nc1ccc(Cl)cc1
inactive: SF-295 12.4 µM | SNB-19 17.7 µM | SN12C 7.24 µM | A549 3.99 µM | HCC 2998 6.44 µM | SNB-75 3.69 µM | CCRF-CEM 1.56 µM | TK-10 2.35 µM | OVCAR-8 14.9 µM | NCI-H460 14.2 µM | ACHN 2.3 µM | A498 13.9 µM | NCI/ADR-RES 2.45 µM | UACC-62 7.64 µM | OVCAR-3 6.89 µM | SK-MEL-2 8.59 µM | HCT-116 4.73 µM | Hs-578T 25.4 µM | MOLT-4 1.64 µM

Cn1c2c(c3ccccc31)CCN(CCN1CCN(c3ccccc3)CC1)C2=O
inactive: SF-295 > 100 µM | SN12C > 100 µM | A549 > 100 µM | CCRF-CEM > 100 µM | TK-10 > 100 µM | OVCAR-8 > 100 µM | NCI-H460 > 100 µM | ACHN > 100 µM | UACC-62 > 100 µM | KM-20L2 > 100 µM | HCT-116 58.1 µM | MOLT-4 > 100 µM

CCN1CCC(O)(/C=C/c2cccc(C)c2)C(C(=O)/C=C/c2cccc(C)c2)C1 (stereo not given)
inactive: SF-295 2.28 µM | SNB-19 4.31 µM | SN12C 2.47 µM | A549 2.29 µM | HCC 2998 1.6 µM | SNB-75 2.09 µM | CCRF-CEM 1.57 µM | TK-10 1.71 µM | OVCAR-8 2.87 µM | NCI-H460 2.12 µM | ACHN 1.59 µM | A498 2.03 µM | NCI/ADR-RES 2.19 µM | UACC-62 1.82 µM | OVCAR-3 3.48 µM | SK-MEL-2 2.31 µM | HCT-116 2.18 µM | Hs-578T 2.33 µM | MOLT-4 2.43 µM

c1ccc(SC2CCSc3ccccc3C2Sc2ccccc2)cc1 (stereo not given)
inactive: SF-295 35.2 µM | SNB-19 94.4 µM | SN12C > 100 µM | A549 > 100 µM | HCC 2998 > 100 µM | SNB-75 19.8 µM | CCRF-CEM > 100 µM | TK-10 > 100 µM | OVCAR-8 > 100 µM | NCI-H460 > 100 µM | ACHN > 100 µM | A498 > 100 µM | UACC-62 > 10 µM | OVCAR-3 37 µM | KM-20L2 > 100 µM | HCT-116 9.75 µM | MOLT-4 > 100 µM

CC(C)(C)C[P+](C)(C)c1ccccc1
inactive: SF-295 > 100 µM | SNB-19 > 100 µM | SN12C > 100 µM | A549 89.5 µM | HCC 2998 > 100 µM | SNB-75 > 100 µM | CCRF-CEM > 100 µM | TK-10 > 100 µM | OVCAR-8 > 100 µM | NCI-H460 > 100 µM | ACHN > 100 µM | UACC-62 > 100 µM | OVCAR-3 91.2 µM | KM-20L2 83 µM | SK-MEL-2 > 100 µM | HCT-116 > 100 µM | MOLT-4 > 100 µM

CCN(CC)CC(=O)Nc1ccc2c(c1)C(=O)c1ccc(NC(=O)CN(CC)CC)cc1C2=O
inactive: SF-295 39 µM | SNB-19 23.8 µM | SN12C 20.1 µM | A549 27.9 µM | HCC 2998 > 100 µM | SNB-75 25.7 µM | CCRF-CEM 20.7 µM | TK-10 43 µM | OVCAR-8 29.5 µM | NCI-H460 14.1 µM | ACHN 25.5 µM | A498 12.9 µM | UACC-62 73.8 µM | KM-20L2 49.8 µM | SK-MEL-2 > 100 µM | HCT-116 13.6 µM | MOLT-4 17.8 µM

COc1cc(/C=C/C(=O)c2c([O-])on[n+]2-c2ccccc2)ccc1O
inactive: SF-295 7.89 µM | SNB-19 4.82 µM | SN12C 2.03 µM | A549 4.09 µM | HCC 2998 2.27 µM | SNB-75 2.5 µM | CCRF-CEM 1.37 µM | TK-10 3.29 µM | OVCAR-8 2.4 µM | NCI-H460 2.07 µM | ACHN 2.32 µM | A498 7.46 µM | NCI/ADR-RES 2.48 µM | UACC-62 3.44 µM | OVCAR-3 2.29 µM | SK-MEL-2 2.31 µM | HCT-116 2.19 µM | Hs-578T 2.43 µM | MOLT-4 2.2 µM

O=C(c1cccs1)c1nccc2c1cnc1ccccc12
inactive: SF-295 > 100 µM | SNB-19 > 100 µM | SN12C > 100 µM | A549 > 100 µM | HCC 2998 > 100 µM | SNB-75 43.7 µM | CCRF-CEM > 100 µM | TK-10 > 100 µM | OVCAR-8 31.4 µM | NCI-H460 > 100 µM | ACHN 38.5 µM | A498 63.8 µM | NCI/ADR-RES > 100 µM | UACC-62 > 100 µM | OVCAR-3 > 100 µM | SK-MEL-2 > 100 µM | HCT-116 90.8 µM | Hs-578T 94.6 µM | MOLT-4 > 100 µM

O=C(CCc1nnc(S)[nH]1)Nc1ccc(Cl)c(Cl)c1
inactive: SF-295 50.6 µM | SNB-19 > 100 µM | SN12C > 100 µM | A549 40.9 µM | SNB-75 20 µM | CCRF-CEM 80.4 µM | TK-10 79.4 µM | OVCAR-8 > 100 µM | NCI-H460 90.8 µM | ACHN 12.6 µM | A498 > 100 µM | UACC-62 2.98 µM | OVCAR-3 40.6 µM | KM-20L2 6.12 µM | SK-MEL-2 6.18 µM | HCT-116 47 µM | MOLT-4 45.8 µM

O=C1NC(=O)C(C(=O)C(=O)Nc2ccc(Br)cc2)C(=O)N1
inactive: SF-295 > 100 µM | SNB-19 > 100 µM | SN12C > 100 µM | A549 > 100 µM | HCC 2998 > 100 µM | SNB-75 12.1 µM | CCRF-CEM > 100 µM | OVCAR-8 > 100 µM | ACHN > 100 µM | A498 > 100 µM | UACC-62 > 100 µM | OVCAR-3 > 100 µM | KM-20L2 > 100 µM | HCT-116 > 100 µM | MOLT-4 > 100 µM

CC(NNC(=O)c1cc[n+]([BH2-]C#N)cc1)c1cccc(C(F)(F)F)c1 (stereo not given)
inactive: SF-295 50.2 µM | SNB-19 > 100 µM | SN12C > 100 µM | A549 86.9 µM | HCC 2998 > 100 µM | SNB-75 > 100 µM | CCRF-CEM > 100 µM | TK-10 > 100 µM | OVCAR-8 > 100 µM | NCI-H460 77.8 µM | ACHN > 100 µM | A498 > 100 µM | NCI/ADR-RES > 100 µM | UACC-62 73.3 µM | OVCAR-3 89.3 µM | SK-MEL-2 > 100 µM | HCT-116 82 µM | Hs-578T 64.4 µM | MOLT-4 46.7 µM
